Consider 1 molecule from patent publication US12310970B2, “Compounds and methods for treating or preventing anterior segment ocular disorders and/or retinal degenerations” (YALE UNIVERSITY, priority 2018, dated 2025).

Experiment [1] deals with Human ARPE-19 cells. The experiment is described as follows: Expression of oxidative stress and apoptosis related genes after TBHP. Format: cell-based. Particulars: 0.9 μM 24 h preincubation, 300 μM TBHP 24 h. As to the method:
FIG. 2 depicts the gene expression pattern of oxidative stress related genes after tert-butyl hydroperoxide-induced cell death. Human ARPE-19 cells were preincubated ciclopirox olamine (0.9 μM) for 24 hours and then exposed to 300 μM tert-butyl hydroperoxide (TBHP) for 24 hours. […] FIG. 3 depicts apoptotic gene expression patterns after oxidative stress-induced cell death in human retinal pigment epithelial (RPE) cells. Human ARPE-19 cells were preincubated with ciclopirox olamine for 24 hours and then exposed to 300 μM tert-butyl hydroperoxide (TBHP) for 24 hours. […] The expression levels of genes related to oxidative stress were identified after exposure to TBHP for 24 hours (FIG. 2).

Experiment [2] has as its system corneal endothelial cells. Description: TBHP-induced cell death in corneal endothelial cells. Format: cell-based, cow. Particulars: corneal endothelial cells (FIG. 18); 0.9 μM 24 h, then 300 μM TBHP 24 h. The method, then:
Immortalized cow corneal endothelial cells (CRL-2048) obtained from the American Type Culture Collection (ATCC, Manassas, VA, USA) were cultured in Dulbecco's modified Eagle's medium (DMEM; Thermo Fisher Scientific, Waltham, MA) containing 10% fetal bovine serum (FBS), 100 IU/mL penicillin, 100 μg/mL streptomycin, 100 μg/mL gentamicin, and 2.5 μg/mL amphotericin B (Thermo Fisher Scientific). Human ARPE-19 cells were plated in 96-well plates for 24 hours in DMEM supplemented with FBS and antibiotics. ARPE-19 cells were preincubated with either ciclopirox olamine (Sigma), compound 414 (Chemical Diversity, San Diego, CA), compound 434 (Chemical Diversity) or no compound for 24 hours and then exposed to varying concentrations of tert-butyl hydroperoxide (TBHP; Sigma-Aldrich, St. Louis, MO) the next day for 24 hours. Cell viability was measured the following day by […] cell viability assay (Promega, Madison, WI) using a BioTek FLX800TM fluorescence reader (BioTek Winooski, VT). […] Protective effect of 0.9 μMciclopirox olamine on lens epithelial cells exposed to 300 μMTBHP.

In experiment [3] the test system is Human iPSC-derived RPE cells. The experiment is described as follows: Mitochondrial respiration (Seahorse XF) after TBHP in iPSC-derived RPE. Type of experiment: cell-based.

Structures can show the parent of a compound that is named as a salt.

Regarding `Cc1cc(C2CCCCC2)n(O)c(=O)c1` [ciclopirox olamine, 6-cyclohexyl-1-hydroxy-4-methyl-2(1H)-pyridone, ethanolamine salt, reference compound], in experiment [1], the “expression of genes related to anti-oxidative stress” value is given as “elevated”, the “expression of genes related to oxidative stress” value is reported as “reduced”, the “gene expression of Bax” value was “reduced” and the “gene expression of caspase 8” value is “reduced”. The “cell viability after exposure to TBHP” value in experiment [2] is on record as “significantly increases cell viability”. Further, the “mitochondrial function, treatment alone” value in experiment [3] (iPSC-derived RPE treated with ciclopirox olamine alone) is “improved”. Moreover, the “protection from oxidative stress-induced cell death” value in experiment [3] (iPSC-derived RPE, TBHP 24 h) is reported as “protects”.
